Read-outs that look alike come from different tables or passages of the source.

Consider six compounds from US20050119188A1, “Method of treating breast cancer” (priority 2003, published 2005).

The subject of test [1] is MCF-7 breast tumor xenografts. As to the kind of experiment: Estrogen-stimulated MCF-7 breast tumor xenograft growth in vivo, FTI plus Tamoxifen. Further details: species or system athymic nude mice. As for the experimental part: (§1) Growth Studies in vivo. Female ovariectomized athymic nude mice were obtained from Charles River Laboratories (Worcester, Mass.). Androstenedione (Δ4A) pellets (25 mg and 15 mg, 90-day slow release) and 17β-estradiol (E2) pellets (0.72 mg, 60-day slow release) were from Innovative Research of America (Saratoga, Fla.). Anastrozole and Letrozole were obtained from Sequoia Research Products, Oxford, United Kingdom) and Tamoxifen was from Sigma Chemical Company.
(§2) MCF-7 breast tumor growth was performed as described previously (Osborne et al., 1995, J. Natl Cancer Inst., 87, 746-750) with minor modifications. To determine the effect of combined FTI plus Tamoxifen on the growth of MCF-7 breast tumor xenografts, 5.0×10^6 MCF-7 cells were inoculated into the right flank of the animals in 100 μl of Matrigel. Animals had been implanted with a 0.72 mg, 60-day pellet the previous day. Fourteen days after cell inoculation, the animals were grouped for treatment with: • 1) Vehicle • 2) Tamoxifen (25 mpk, p.o., q.d.) • 3) FTI (20 mpk, p.o., b.i.d.) • 4) FTI (40 mpk, p.o., b.i.d.) • 5) FTI (20 mpk, p.o., b.i.d.)+Tamoxifen (25 mpk, p.o., q.d.) • 6) FTI (40 mpk, p.o., b.i.d.)+Tamoxifen (25 mpk, p.o., q.d.)
(§3) Treatment was continued for 28 days and tumor volumes were measured twice a week with calipers as described above.

Test [2] relates to MCF-7arom breast tumor xenografts. As to the kind of experiment: MCF-7arom breast tumor xenograft growth in vivo, FTI plus Tamoxifen. More on the design: species or system athymic nude mice. The note with it: Day 10 of treatment. On the procedure: as §1
as §2, with “To” for “MCF-7 breast tumor growth was performed as described previously (Osborne et al., 1995, J. Natl Cancer Inst., 87, 746-750) with minor modifications. To”, “MCF-7arom” for “MCF-7”, “5×10^6 MCF-7arom” for “5.0×10^6 MCF-7”, “15” for “0.72”, “90-day Δ4A” for “60-day”, “grouped (n=10)” for “grouped”
as §3

Test [3] shares this test system. The experiment in a line: MCF-7arom breast tumor xenograft growth in vivo, FTI plus Letrozole. More on the design: species or system athymic nude mice. As to conditions: Day 10 of treatment. As for the experimental part:
as §1
To determine the effect of combined FTI plus Letrozole on the growth of MCF-7arom breast tumor xenografts, 5×10^6 MCF-7arom cells were inoculated into the right flank of the animals in 100 μl of Matrigel. Animals had been implanted with a 15 mg, 90-day Δ4A pellet the previous day. Fourteen days after cell inoculation, the animals were grouped (n=10) for treatment with: • 1) Vehicle • 2) Letrozole (2.5 mpk, p.o., once a day [q.d.]) • 3) FTI (20 mpk, p.o., b.i.d.) • 4) FTI (40 mpk, p.o., b.i.d.) • 5) FTI (20 mpk, p.o., b.i.d.)+Letrozole (2.5 mpk, p.o., q.d.) • 6) FTI (40 mpk, p.o., b.i.d.)+Letrozole (2.5 mpk, p.o., q.d.)
as §3

The subject of test [4] is MCF-7 cells. As to the kind of experiment: Growth studies in vitro: estrogen-stimulated MCF-7 cell proliferation (CellTiter-Glo luminescent viability assay). Type of test: cell-based, human. As to conditions: for IC50: single agent, E2 (1 nM)-stimulated MCF-7 cells, Day 6, read-out: IC50 value, inhibition of MCF-7 cell growth; for inhibition at 0.1 µM: read-out: inhibited cell proliferation. On the procedure: Cell lines. MCF-7 cells were provided from Dr. A. Brodie (University of Maryland School of Medicine, Baltimore, Md.) and cultured in DMEM supplemented with 5% fetal bovine serum (FBS) and 1% penicillin/streptomycin (P/S). MCF-7arom cells were provided from Dr. S. Chen (Beckman Research Institute of the City of Hope, Duarte, Calif.) and cultured in DMEM supplemented with 5% FBS and 750 μg/ml geneticin.
Growth studies in vitro. Six days prior to plating in 96-well plates, MCF-7 cells growing in T-75 flasks (30-50% confluent) were washed extensively with phenyl red-free DPBS and transferred to estrogen-depleted medium. Estrogen-depleted medium was phenyl red-free DMEM/F-12 containing 10% heat-treated and dextran-coated charcoal-treated fetal bovine serum and 1% penicillin/streptomycin solution. Estrogen depleted media was refreshed 3 days prior to plating. On Day 0, cells were seeded (1,200 cells/well) into 96-well plates in estrogen-depleted medium and allowed to attach. On Day 1 the media was aspirated and replaced in 6-well replicates with estrogen-depleted medium supplemented with E2 (1 nM), and 4-OH Tamoxifen (Sigma Chemical Company, St Louis, Mo. in the range 10 nM-10 μM), or Fulvestrant (Tocris, Ellisville, Mo. in the range 10 nM-1.0 μM), FTI (in the range 10 nM-10 μM), and a combination of the antiestrogens and FTI. Media containing drugs was refreshed on Day 3. The effects of treatment on cell proliferation were determined on Day 6 using the CellTiter-Glo luminescent viability assay (Promega Corp., Madison, Wis.).
(Cellular ATP, detected with luciferase, serves as a proxy for viable cell number.)

Test [5] deals with MCF-7arom breast tumor xenografts. As to the kind of experiment: MCF-7arom breast tumor xenograft growth in vivo, FTI plus Anastrozole. Further details: species or system athymic nude mice. As to conditions: for induction of tumor regression / tumor regression: 28 days; for inhibited tumor growth compared to vehicle-treated animals: 28 days of treatment. As for the experimental part:
as §1
MCF-7arom breast tumor growth was performed as described previously (Lu et al., 1999, Breast Cancer Res. Treat., 57, 183-192; Long et al., 2002, Clin Cancer Res., 8, 2378-2388) with minor modifications. To determine the effect of combined FTI plus Anastrozole on the growth of MCF-7arom breast tumor xenografts, 2.5×10^6 MCF-7arom cells were inoculated into the right flank of the animals in 100 μl of Matrigel (BD Biosciences, Bedford, Mass.). Animals had been implanted with a 25 mg, 90-day Δ4A pellet the previous day. Fourteen days after cell inoculation, the animals were grouped (n=10) for treatment with: • 1) Vehicle • 2) Anastrozole (5 mg per kg [mpk], orally [p.o.], twice a day [b.i.d.]) • 3) FTI (20 mpk, p.o., b.i.d.) • 4) FTI (40 mpk, p.o., b.i.d.) • 5) FTI (60 mpk, p.o., b.i.d.) • 6) FTI (20 mpk, p.o., b.i.d.)+Anastrozole (5 mpk, p.o., b.i.d.) • 7) FTI (40 mpk, p.o., b.i.d.)+Anastrozole (5 mpk, p.o., b.i.d.) • 8) FTI (60 mpk, p.o., b.i.d.)+Anastrozole (5 mpk, p.o., b.i.d.)
Treatment was continued for 28 days and tumor volumes were measured twice a week with calipers. Tumor volumes and animal body weights were recorded using LABCAT (Innovative Programming Associates Inc., Princeton, N.J.). Tumor volumes were calculated by the formula (w×l×h)/2.

In the case of `CC/C(=C(\c1ccccc1)c1ccc(OCCN(C)C)cc1)c1ccccc1` [Tamoxifen, reference compound], the inhibited tumor growth in test [1] (Tamoxifen 25 mpk q.d., 14 days of treatment) came to 29%; in test [2] (Tamoxifen 25 mpk p.o. q.d.), 22%.
What is called IC50 is the point on the concentration scale where inhibition reaches its midpoint. Regarding `NC(=O)N1CCC(CC(=O)N2CCC([C@H]3c4ncc(Br)cc4CCc4cc(Cl)cc(Br)c43)CC2)CC1` [FTI], the “tumor regression, % of initial starting volume” value in test [1] (single-agent FTI 40 mpk b.i.d., Day 14 of treatment) amounted to 57%. In addition, the inhibited tumor growth in test [3] (FTI 40 mpk p.o. b.i.d.) and in test [2] (FTI 40 mpk p.o. b.i.d.) was 16% throughout. The IC50 in test [4] (Homo sapiens, MCF7, 144 h) was 40 nM. The inhibition at 0.1 µM in test [4] (Homo sapiens, MCF7, single-agent FTI 0.1 μM, 4-OH Tamoxifen experiment (FIG. 1)) was 56%; in test [4] (Homo sapiens, MCF7, single-agent FTI 0.1 μM, Fulvestrant experiment (FIG. 2)), 43%. For the same compound, the “induction of tumor regression” value in test [5] (FTI 20 mpk b.i.d.) is reported as “did not induce tumor regression”. The “inhibited tumor growth compared to vehicle-treated animals” value in test [5] (FTI 20 mpk p.o. b.i.d.) came out at 56%. The figures for the tumor regression in test [5] (single-agent FTI 40 mpk b.i.d.) and in test [5] (single-agent FTI 60 mpk b.i.d.) were 16% and 40%, respectively.
With `C[C@]12CC[C@@H]3c4ccc(O)cc4C[C@@H](CCCCCCCCC[S+]([O-])CCCC(F)(F)C(F)(F)F)[C@H]3[C@@H]1CC[C@@H]2O` (stereo partly shown) [Fulvestrant, reference compound], in test [4] (Homo sapiens, MCF7, single-agent Fulvestrant 0.1 μM (FIG. 2)), the inhibition at 0.1 µM is 53%.
As for `CC/C(=C(\c1ccc(O)cc1)c1ccc(OCCN(C)C)cc1)c1ccccc1` [4-OH Tamoxifen, reference compound], the IC50 in test [4] was 450 nM. Also, the inhibited cell proliferation in test [4] (single-agent 4-OH Tamoxifen 1.0 μM (FIG. 1)) was found to be 55%.
For the compound `CC(C)(C#N)c1cc(Cn2cncn2)cc(C(C)(C)C#N)c1` [Anastrozole, reference compound], the “induction of tumor regression” value in test [5] (Anastrozole 5 mpk b.i.d.) was “did not induce tumor regression”. The “inhibited tumor growth compared to vehicle-treated animals” value in test [5] (Anastrozole 5 mpk p.o. b.i.d.) was 62%.
`N#Cc1ccc(C(c2ccc(C#N)cc2)n2cncn2)cc1` [Letrozole]: in test [3] (Letrozole 2.5 mpk p.o. q.d.), the inhibited tumor growth is recorded as 127% and the tumor regression is on record as 25%.
